Data published in the supplement of paper PMC11061612.

How the values were obtained:
[1] = compound: C1CN(CCC1(C(=O)N[C@@H](CCO)C2=CC=C(C=C2)Cl)N)C3=NC=NC4=C3C=CN4 [Capivasertib]; details: max 10 µM
Outline: (§1)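 After 24 hours at 37°C and 5% CO2 in 1536-well plates holding 7.5 μl of DMEM/F12 or RPMI with 10% FBS, cancer cell lines were dosed for 72 hours, with final DMSO typically 0.2%. Viability came from CellTiter-Glo 2.0 luminescence, scaled between the means of blank wells and DMSO wells. A non-linear mixed effects model fitted a two-parameter logistic curve to each dose response to give the single-agent IC50.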

[2] = compound: C=CCn1c(=O)c2cnc(Nc3ccc(N4CCN(C)CC4)cc3)nc2n1-c1cccc(C(C)(C)O)n1 [AZD1775]; details: max 3 µM
Outline: as §1

[3] = compound: CC(=O)Nc1cccc(-n2c(=O)n(C3CC3)c(=O)c3c(Nc4ccc(I)cc4F)n(C)c(=O)c(C)c32)c1 [Trametinib]; details: max 1 µM
Outline: as §1

[4] = compound: CC(=O)c1c(C)c2cnc(Nc3ccc(N4CCNCC4)cn3)nc2n(C2CCCC2)c1=O [Palbociclib]; details: max 10 µM
Outline: as §1

[5] = compound: CC(C)n1c(=O)n(C)c2cnc3cc(F)c(-c4ccc(OCCCN5CCCCC5)nc4)cc3c21 [AZD1390]; details: max 0.3 µM
Outline: as §1

[6] = compound: CC1(C)CCC(CN2CCN(c3ccc(C(=O)NS(=O)(=O)c4ccc(NCC5CCOCC5)c([N+](=O)[O-])c4)c(Oc4cnc5[nH]ccc5c4)c3)CC2)=C(c2ccc(Cl)cc2)C1 [Venetoclax]; details: max 1 µM
Outline: as §1

[7] = compound: CC1=C(C(=CC=C1)Cl)NC(=O)C2=CN=C(S2)NC3=CC(=NC(=N3)C)N4CCN(CC4)CCO [Dasatinib]; details: max 2 µM
Outline: as §1

[8] = compound: CC1=CN2[C@@H](C1)C=NC3=CC(=C(C=C3C2=O)OC)OCCCCCOC4=C(C=C5C(=C4)N=C[C@@H]6CC(=CN6C5=O)C)OC [SG3199]; details: max 0.001 µM
Outline: as §1

[9] = compound: CCN(CCO)CCCOc1ccc2c(Nc3cc(CC(=O)Nc4cccc(F)c4)[nH]n3)ncnc2c1 [AZD2811]; details: max 1 µM
Outline: as §1

[10] = compound: CCc1c2c(nc3ccc(O)cc13)-c1cc3c(c(=O)n1C2)COC(=O)[C@]3(O)CC [SN-38]; details: max 0.3 µM
Outline: as §1

[11] = compound: CN(C)CCCOc1ccc(-c2ccc3ncc4c(c3c2)n(C2CCOCC2)c(=O)n4C)cn1 [AZD0156]; details: max 3 µM
Outline: as §1

[12] = compound: CN(CC[C@H](CSC1=CC=CC=C1)NC2=C(C=C(C=C2)S(=O)(=O)NC(=O)C3=CC=C(C=C3)N4CCC(CC4)[C@H](C5=CC=CC=C5C6=CC=C(C=C6)Cl)O)S(=O)(=O)C(F)(F)F)CCO [AZD4320]; details: max 1 µM
Outline: as §1

[13] = compound: COc1cc(Nc2ncc3c(n2)-c2ccc(Cl)cc2C(c2c(F)cccc2OC)=NC3)ccc1C(=O)O [Alisertib]; details: max 10 µM
Outline: as §1

[14] = compound: COc1cc2ncnc(Nc3ccc(F)c(Cl)c3)c2cc1OCCCN1CCOCC1 [Gefitinib]; details: max 10 µM
Outline: as §1

[15] = compound: COc1cccc(OCCCN)c1-c1cc(Nc2cnc(C#N)cn2)n[nH]1 [Prexasertib]; details: max 1 µM
Outline: as §1

[16] = compound: COc1cccc2c1C(=O)c1c(O)c3c(c(O)c1C2=O)C[C@@](O)(C(=O)CO)C[C@@H]3O[C@H]1C[C@H](N)[C@H](O)[C@H](C)O1 [Doxorubicin]; details: max 1 µM
Outline: as §1

[17] = compound: COc1nnc2ccc(N3CCC(c4ccc(OCCN5CCN(C)C(=O)[C@H]5C)cc4)CC3)nn12 [AZD5153]; details: max 1 µM
Outline: as §1

[18] = compound: CS(=O)(=O)CCNCc1ccc(-c2ccc3ncnc(Nc4ccc(OCc5cccc(F)c5)c(Cl)c4)c3c2)o1 [Lapatinib]; details: max 10 µM
Outline: as §1

[19] = compound: C[C@@H](Nc1cc(F)cc(F)c1)c1cc(C(=O)N(C)C)cc2c(=O)cc(N3CCOCC3)oc12 [AZD8186]; details: max 3 µM
Outline: as §1

[20] = compound: C[C@@H](Oc1cc(-c2cnn(C3CCNCC3)c2)cnc1N)c1c(Cl)ccc(F)c1Cl [Crizotinib]; details: max 10 µM
Outline: as §1

[21] = compound: C[C@@H](c1ccc2nccn2c1)n1nnc2ncc(-c3cnn(C)c3)nc21 [Savolitinib]; details: max 1 µM
Outline: as §1

[22] = compound: C[C@@H]1COCCN1C2=NC(=NC(=C2)C3(CC3)[S@](=N)(=O)C)C4=C5C=CNC5=NC=C4 [AZD6738]; details: max 10 µM
Outline: as §1

[23] = compound: Cc1c2c(nn1C)CSCc1cc(n(C)n1)CSc1cc(c3ccccc3c1)OCCCc1c(C(=O)O)n(C)c3c-2c(Cl)ccc13 [AZD5991]; details: max 1 µM
Outline: as §1

[24] = compound: Cc1cc2ncnn2cc1Nc1ncc2c(n1)n(C1CCOCC1)c(=O)n2C [AZD7648]; details: max 10 µM
Outline: as §1

[25] = compound: Cc1nc(-c2cn3c(n2)-c2ccc(-c4cnn(C(C)(C)C(N)=O)c4)cc2OCC3)n(C(C)C)n1 [Taselisib]; details: max 10 µM
Outline: as §1

[26] = compound: Cn1cnc2c(F)c(Nc3ccc(Br)cc3Cl)c(C(=O)NOCCO)cc21 [Selumetinib]; details: max 10 µM
Outline: as §1

[27] = compound: O=C(c1cc(Cc2n[nH]c(=O)c3ccccc23)ccc1F)N1CCN(C(=O)C2CC2)CC1 [Olaparib]; details: max 10 µM
Outline: as §1

[28] = compound: NC1(c2ccc(-c3nc4ccn5c(=O)[nH]nc5c4cc3-c3ccccc3)cc2)CCC1 [MK-2206]; details: max 10 µM
Outline: as §1

Cell Line	IC50, cell viability 72 h [1] [nM]	IC50, cell viability 72 h [2] [nM]	IC50, cell viability 72 h [3] [nM]	IC50, cell viability 72 h [4] [nM]	IC50, cell viability 72 h [5] [nM]	IC50, cell viability 72 h [6] [nM]	IC50, cell viability 72 h [7] [nM]	IC50, cell viability 72 h [8] [nM]	IC50, cell viability 72 h [9] [nM]	IC50, cell viability 72 h [10] [nM]	IC50, cell viability 72 h [11] [nM]	IC50, cell viability 72 h [12] [nM]	IC50, cell viability 72 h [13] [nM]	IC50, cell viability 72 h [14] [nM]	IC50, cell viability 72 h [15] [nM]	IC50, cell viability 72 h [16] [nM]	IC50, cell viability 72 h [17] [nM]	IC50, cell viability 72 h [18] [nM]	IC50, cell viability 72 h [19] [nM]	IC50, cell viability 72 h [20] [nM]	IC50, cell viability 72 h [21] [nM]	IC50, cell viability 72 h [22] [nM]	IC50, cell viability 72 h [23] [nM]	IC50, cell viability 72 h [24] [nM]	IC50, cell viability 72 h [25] [nM]	IC50, cell viability 72 h [26] [nM]	IC50, cell viability 72 h [27] [nM]	IC50, cell viability 72 h [28] [nM]
SAT (Head and Neck Carcinoma)	> 10000	2690	77.2	> 10000	> 300	> 1000	204	> 1	> 1000	> 300	> 3000	> 1000	2920	2610	826	> 1000	155	2020	> 3000	> 10000	> 1000	> 10000	> 1000	> 10000	160	4690	> 10000	
SNU-407 (Colorectal Carcinoma)	6340	1570	74.3	> 10000	> 300	> 1000	> 2000	> 1	> 1000	160	> 3000	> 1000	1150	> 10000	458	> 1000	62.9	> 10000	> 3000	> 10000	> 1000	4120	> 1000	> 10000	365	2560	> 10000	> 10000
SNU-C2B (Colorectal Carcinoma)	> 10000	1120	> 1000	> 10000	> 300	> 1000	> 2000	> 1	> 1000	> 300	> 3000	> 1000	> 10000	> 10000	133	> 1000	788	> 10000	> 3000	> 10000	> 1000	7630	> 1000	> 10000	8210	> 10000	> 10000	
SUP-M2 (T-Cell Non-Hodgkin's Lymphoma)	> 10000	316	> 1000	6520	> 300	> 1000	> 2000	> 1	22.6	1.56	> 3000	805	57.7	> 10000	16.5	54.7	30.4	6550	> 3000	475	> 1000	1010	117	> 10000	> 10000	> 10000	5400	
SiHa (Cervical Carcinoma)	> 10000	> 3000	> 1000	> 10000	> 300	> 1000	> 2000	> 1	> 1000	> 300	> 3000	> 1000	> 10000	> 10000	> 1000	> 1000	444	> 10000	> 3000	> 10000	> 1000	> 10000	> 1000	> 10000	> 10000	> 10000	> 10000	
T47D (Breast Carcinoma)	> 10000	> 3000	> 1000	> 10000	> 300	> 1000	> 2000	> 1	> 1000	104	> 3000	> 1000	> 10000	> 10000	> 1000	> 1000	> 1000	> 10000	> 3000	> 10000	> 1000	> 10000	> 1000	> 10000	776	> 10000	> 10000	
UACC-257 (Melanoma)	> 10000	> 3000	41.2	> 10000	> 300	> 1000	> 2000	> 1	> 1000	> 300	> 3000	> 1000	> 10000	> 10000	> 1000	> 1000	> 1000	> 10000	> 3000	> 10000	> 1000	> 10000	> 1000	> 10000	> 10000	2330	> 10000	
WM35 (Melanoma)	> 10000	> 3000	16.6	> 10000	> 300	> 1000	> 2000	> 1	> 1000	210	> 3000	> 1000	> 10000	> 10000	134	> 1000	> 1000	> 10000	> 3000	> 10000	> 1000	> 10000	> 1000	> 10000	> 10000	1090	> 10000	
